How the values were obtained:
CAL-85-1 [1] = conditions: 72 h
Procedure, shortened: (§1)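 Compound dissolved in 5 µl medium was placed in 384-well plates before 20 µl of breast cancer cell suspension was added, and the plates were incubated for 72 h. Cells then received 2.5 µl CellTiter-Blue for 2 h at 37 °C, and fluorescence was read at 560/590 nm. EC50 values come from percent-inhibition dose-response fits that were censored at the highest concentration, with plates normalised to vehicle and a positive kill control and rows with a zero drug sensitivity score excluded.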

CAL-51 = conditions: 72 h
Procedure, shortened: as §1

MDA-MB-453 [2] = conditions: 72 h
Procedure, shortened: as §1

HDQ-P1 [3] = conditions: 72 h
Procedure, shortened: as §1

DU-4475 [4] = conditions: 72 h
Procedure, shortened: as §1

MDA-MB-468 = assay: normalised response (% of control), CellTiter-Glo; higher = more viable cells (100 = DMSO, 0 = benzethonium chloride kill control); conditions: incubation time: 72 h
Procedure, shortened: (§2)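 Breast cancer cell lines in 20 µl suspension were added to 384-well plates containing compound at 5 concentrations, spaced in 10-fold steps across a 10,000-fold range chosen for each compound, and incubated for 72 h. CellTox Green fluorescence was read at 485/520 nm, followed by CellTiter-Glo luminescence after 10 min at room temperature. Signals on each plate were normalised so that 0.1 % DMSO equals 100 and a positive kill control equals 0. Every value in the table is the normalised signal at one concentration of the series.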

Hs578T = assay: as above; conditions: incubation time: 72 h
Procedure, shortened: as §2

CAL-85-1 [5] = assay: as above; conditions: incubation time: 72 h
Procedure, shortened: as §2

HCC1143 = assay: as above; conditions: incubation time: 72 h
Procedure, shortened: as §2

MDA-MB-453 [6] = assay: as above; conditions: incubation time: 72 h
Procedure, shortened: as §2

MDA-MB-436 = assay: as above; conditions: incubation time: 72 h
Procedure, shortened: as §2

SK-BR-3 = assay: as above; conditions: incubation time: 72 h
Procedure, shortened: as §2

BT-549 = assay: as above; conditions: incubation time: 72 h
Procedure, shortened: as §2

HCC1937 = assay: as above; conditions: incubation time: 72 h
Procedure, shortened: as §2

HDQ-P1 [7] = assay: as above; conditions: incubation time: 72 h
Procedure, shortened: as §2

DU-4475 [8] = assay: as above; conditions: incubation time: 72 h
Procedure, shortened: as §2

CAL-120 = assay: as above; conditions: incubation time: 72 h
Procedure, shortened: as §2

BT-474 = assay: as above; conditions: incubation time: 72 h
Procedure, shortened: as §2

MFM-223 = assay: as above; conditions: incubation time: 72 h
Procedure, shortened: as §2

MCF-10A = assay: as above; conditions: incubation time: 72 h
Procedure, shortened: as §2

EC50, CellTiter-Blue viability (MDA-MB-453 [2]) [nM]	SMILES	EC50, CellTiter-Blue viability (CAL-85-1 [1]) [nM]	EC50, CellTiter-Blue viability (CAL-51) [nM]	EC50, CellTiter-Blue viability (HDQ-P1 [3]) [nM]	EC50, CellTiter-Blue viability (DU-4475 [4]) [nM]	normalised response (MDA-MB-468) [%]	normalised response (Hs578T) [%]	normalised response (CAL-85-1 [5]) [%]	normalised response (HCC1143) [%]	normalised response (MDA-MB-453 [6]) [%]	normalised response (MDA-MB-436) [%]	normalised response (SK-BR-3) [%]	normalised response (BT-549) [%]	normalised response (HCC1937) [%]	normalised response (HDQ-P1 [7]) [%]	normalised response (DU-4475 [8]) [%]	normalised response (CAL-120) [%]	normalised response (BT-474) [%]	normalised response (MFM-223) [%]	normalised response (MCF-10A) [%]
851	Cc1cc(Nc2cc(CN3CCOCC3)c3nc(C)c(Cc4ccc(Cl)cc4F)n3n2)n[nH]1	2650	2150	930	2130															
	N#Cc1ccc(COC[C@H]2O[C@@H](n3c(NCc4ccc(Cl)c(Cl)c4)nc4c(N)ncnc43)[C@H](O)[C@@H]2O)cc1				2320															
6400	COc1cc(OC2CCN(C)CC2)ccc1Nc1ncc2c(n1)n(C1CCCC1)c(=O)n2C [AZ 3146]	3240	1390		5180															
6880	CN(C)c1nc(N(C)C)nc(N(C)C)n1 [Altretamine]	9540																		
	O=P1(N(CCCl)CCCl)NCCCO1 (centres undefined) [Cyclophosphamide] (40000 nM)					93.2	106	98.8	105	101	96.3	108	100	95.8	96.8	102	94.4	92.8	108	109
	C=C1C[C@@H]2[C@H](CC[C@]3(C)C(=O)CC[C@@H]23)[C@@]2(C)C=CC(=O)C=C12 [Exemestane] (10000 nM)					76.3	102	97.7	94.1	95.7	88	89.3	94.5	89.5	92.3	108	101	108	94.5	107
5030	COc1cc2ncnc(Nc3ccc(F)c(Cl)c3)c2cc1OCCCN1CCOCC1 [Gefitinib]			3330																
	COc1cc2ncnc(Nc3ccc(F)c(Cl)c3)c2cc1OCCCN1CCOCC1 [Gefitinib] (10000 nM)					38.1	97	34.7	77	60.3	74.1	27.1	73.6	60.9	56	104	83.6	69.8	75	26.1
	O=C(Nc1ccncc1)C(=O)c1cn(Cc2ccc(Cl)cc2)c2ccccc12 [Indibulin] (10000 nM)					37	51.4	43	47.9	66.9	44.7	27	39.2	69	72	79	60.7	73.5	62.5	76.1
	NC(=O)c1ccc(I)c([N+](=O)[O-])c1 [Iniparib] (10000 nM)					79	95.5	116	92.1	73.2	73.3	71.1	96.5	86.9	96.3	90.2	98.2	91	80	76.3
	CCc1c2c(nc3ccc(OC(=O)N4CCC(N5CCCCC5)CC4)cc13)-c1cc3c(c(=O)n1C2)COC(=O)[C@]3(O)CC [Irinotecan] (10000 nM)					23.2	86.9	63.6	60.1	102	36.8	47.4	49.1	70.9	73.3	41.8	70	69.5	96.5	68.2
	Oc1ccc2c(c1)CC[C@H](c1ccccc1)[C@@H]2c1ccc(OCCN2CCCC2)cc1 [Lasofoxifene] (1000 nM)					99.7	107	100	97.7	88.7	110	105	95.2	99.3	94.1	96.2	114	103	102	117
4580	Cc1ccc(NC(=O)c2ccc(CN3CCN(C)CC3)cc2)cc1Nc1nc(-c2cccnc2)cs1 [Masitinib]																			
	Cc1ccc(NC(=O)c2ccc(CN3CCN(C)CC3)cc2)cc1Nc1nc(-c2cccnc2)cs1 [Masitinib] (10000 nM)					36.6	96.6	64.4	80.5	55.6	51.7	31.8	59.5	65	75.5	99.4	80.8	33.2	73	91.6
2640	O=C(Nc1cccnc1)N1CCC(Cc2cccc(Oc3ccc(C(F)(F)F)cn3)c2)CC1 [PF-3845]		5960																	
	O=C(Nc1cccnc1)N1CCC(Cc2cccc(Oc3ccc(C(F)(F)F)cn3)c2)CC1 [PF-3845] (10000 nM)					49.1	92.1	89.7	86.1	74.7	72.6	57.1	71.7	75.3	95.2	85	86	93.3	75.7	93.4
	Cc1[nH]c2ccccc2c1CCNCc1ccc(/C=C/C(=O)NO)cc1 [Panobinostat] (1000 nM)					7.12	5.17	3.87	13.4	2.01	30.2	0.27	14.4	20.7	26.4	13.9	9.89	7.51	29.4	11
	COCC1(CO)C(=O)C2CCN1CC2 (centres undefined) [Prima-1 Met] (10000 nM)					91.3	97.4	102	98	93.1	97.7	106	53.3	101	96.7	106	100	97.1	103	106
2740	CNC(=O)c1cc(Oc2ccc(NC(=O)Nc3ccc(Cl)c(C(F)(F)F)c3)c(F)c2)ccn1 [Regorafenib]		2740		3000															
	CNC(=O)c1cc(Oc2ccc(NC(=O)Nc3ccc(Cl)c(C(F)(F)F)c3)c(F)c2)ccn1 [Regorafenib] (10000 nM)					29.8	47	89.3	77.8	59.1	46.9	51.7	43.7	50.1	57.4	58.2	49.8	50	35.9	46.2
	CO[C@H]1C[C@@H]2CC[C@@H](C)[C@@](O)(O2)C(=O)C(=O)N2CCCC[C@H]2C(=O)O[C@H]([C@H](C)C[C@@H]2CC[C@@H](OP(C)(C)=O)[C@H](OC)C2)CC(=O)[C@H](C)/C=C(\C)[C@@H](O)[C@@H](OC)C(=O)[C@H](C)C[C@H](C)/C=C/C=C/C=C/1C [Ridaforolimus] (100 nM)					56.7	69.6	66.8	67.1	62.8	82.5	56.9	54.8	69.3	79	72.8	64.8	81.5	68.3	85.1
2980	c1ccc2c(CCNc3ccc(Nc4ccncc4)cc3)c[nH]c2c1 [Serdemetan]		4940		4500															
	c1ccc2c(CCNc3ccc(Nc4ccncc4)cc3)c[nH]c2c1 [Serdemetan] (10000 nM)					9.51	48.1	39.1	52.9	42.3	44.8	15.5	23.6	49.7	73.6	0.28	67.3	51.8	58	52.6
7240	CN(C)CCOc1ccc(/C(=C(/CCCl)c2ccccc2)c2ccccc2)cc1 [Toremifene]																			
	CN(C)CCOc1ccc(/C(=C(/CCCl)c2ccccc2)c2ccccc2)cc1 [Toremifene] (10000 nM)					75.5	82.1	85.2	96.8	63.8	83.7	67.1	81.8	49.1	87.7	88	90.7	68.5	48.4	63.5
	CC(C)C[C@@H](C(=O)N[C@H](C(=O)OC1CCCC1)c1ccccc1)[C@H](O)C(=O)NO [Tosedostat] (10000 nM)					24.6	63.1	36.6	55.1	47.6	64.5	74	42.7	60.4	59.9	87.6	47.9	24.8	55.9	76.5
4640	COc1cc2/c(=N/c3ccc(Br)cc3F)nc[nH]c2cc1OCC1CCN(C)CC1 [Vandetanib]	2590	2900	191																
	COc1cc2/c(=N/c3ccc(Br)cc3F)nc[nH]c2cc1OCC1CCN(C)CC1 [Vandetanib] (1000 nM)					69.9	91.7	58.9	86.4	74.5	86	74.3	95	78	56.3	87.8	89.6	79.3	64.9	27.1
	COCC[n+]1c2c(n(Cc3cnccn3)c1C)C(=O)c1ccccc1C2=O [YM155] (10000 nM)					-0.19	-0.62	-0.28	-0.39	-0.58	-0.62	-0.43	-0.36	0.28	1.64	-0.36	-0.38	1.71	5.6	-0.72

SMILES	EC50, CellTiter-Blue viability (MDA-MB-453 [2]) [nM]	EC50, CellTiter-Blue viability (CAL-85-1 [1]) [nM]	EC50, CellTiter-Blue viability (CAL-51) [nM]	EC50, CellTiter-Blue viability (HDQ-P1 [3]) [nM]	EC50, CellTiter-Blue viability (DU-4475 [4]) [nM]	normalised response (MDA-MB-468) [%]	normalised response (Hs578T) [%]	normalised response (CAL-85-1 [5]) [%]	normalised response (HCC1143) [%]	normalised response (MDA-MB-453 [6]) [%]	normalised response (MDA-MB-436) [%]	normalised response (SK-BR-3) [%]	normalised response (BT-549) [%]	normalised response (HCC1937) [%]	normalised response (HDQ-P1 [7]) [%]	normalised response (DU-4475 [8]) [%]	normalised response (CAL-120) [%]	normalised response (BT-474) [%]	normalised response (MFM-223) [%]	normalised response (MCF-10A) [%]
C=C1C[C@@H]2[C@H](CC[C@]3(C)C(=O)CC[C@@H]23)[C@@]2(C)C=CC(=O)C=C12 [Exemestane]	916																			
